Like-named read-outs stand apart in the source and are kept apart here.
Key:
[1] = system: S. pneumoniae ATCC 6301; test: microdilution assay MIC, S. pneumoniae ATCC 6301; format: cell-based, Streptococcus pneumoniae; settings: S. pneumoniae ATCC 6301, erythromycin sensitive strain, average where multiple assays
Procedure: (§1) In Table B, in some instances multiple assays were performed for a compound/strain combination, in which case the reported MIC is the average. S. pneumoniae ATCC 6301, ATCC 700671, and ATCC 49619 and S. aureus ATCC 6538p and ATCC 29213 are erythromycin sensitive strains.

[2] = system: S. pneumoniae ATCC 700906; test: microdilution assay MIC, S. pneumoniae ATCC 700906; format: cell-based, Streptococcus pneumoniae
Procedure: (§2) In Table B, in some instances multiple assays were performed for a compound/strain combination, in which case the reported MIC is the average.

[3] = system: H. influenzae ATCC 9006; test: microdilution assay MIC, H. influenzae ATCC 9006; format: cell-based, Haemophilus influenzae
Procedure: as §1

[4] = system: S. pneumoniae ATCC 49619; test: microdilution assay MIC, S. pneumoniae ATCC 49619; format: cell-based, Streptococcus pneumoniae; settings: S. pneumoniae ATCC 49619, erythromycin sensitive strain, average where multiple assays
Procedure: as §1

[5] = system: S. pneumoniae ATCC 700905; test: microdilution assay MIC, S. pneumoniae ATCC 700905; format: cell-based, Streptococcus pneumoniae
Procedure: as §1

[6] = system: S. aureus ATCC 6538p; test: microdilution assay MIC, S. aureus ATCC 6538p; format: cell-based, Staphylococcus aureus; settings: erythromycin sensitive strain, average where multiple assays
Procedure: as §1

[7] = system: E. faecalis ATCC 51575; test: microdilution assay MIC, E. faecalis ATCC 51575; format: cell-based, Enterococcus faecalis
Procedure: as §2

[8] = system: S. epidermidis ATCC 12228; test: microdilution assay MIC, S. epidermidis ATCC 12228; format: cell-based, Staphylococcus epidermidis
Procedure: as §1

[9] = system: S. pneumoniae ATCC 700677; test: microdilution assay MIC, S. pneumoniae ATCC 700677; format: cell-based, Streptococcus pneumoniae
Procedure: as §1

[10] = system: H. influenzae ATCC 49766; test: microdilution assay MIC, H. influenzae ATCC 49766; format: cell-based, Haemophilus influenzae
Procedure: as §1

[11] = system: S. aureus ATCC 29213; test: microdilution assay MIC, S. aureus ATCC 29213; format: cell-based, Staphylococcus aureus; settings: S. aureus ATCC 29213, erythromycin sensitive strain, average where multiple assays
Procedure: as §1

[12] = system: S. aureus ATCC 14154; test: microdilution assay MIC, S. aureus ATCC 14154; format: cell-based, Staphylococcus aureus
Procedure: as §2

[13] = system: S. pneumoniae ATCC 700676; test: microdilution assay MIC, S. pneumoniae ATCC 700676; format: cell-based, Streptococcus pneumoniae
Procedure: as §1

[14] = system: S. pneumoniae ATCC 700671; test: microdilution assay MIC, S. pneumoniae ATCC 700671; format: cell-based, Streptococcus pneumoniae; settings: S. pneumoniae ATCC 700671, erythromycin sensitive strain, average where multiple assays
Procedure: as §1

[15] = S. pneumoniae ATCC 700906, erythromycin A resistant strain, average where multiple assays
[16] = S. pneumoniae ATCC 700905, erythromycin A resistant strain, average where multiple assays
[17] = S. pneumoniae ATCC 700677, erythromycin A resistant strain, average where multiple assays
[18] = S. aureus ATCC 14154, erythromycin A resistant strain, average where multiple assays
[19] = S. pneumoniae ATCC 700676, erythromycin A resistant strain, average where multiple assays

SMILES | MIC [1] [µg/mL] | MIC [2, 15] [µg/mL] | MIC ([3]; average where multiple assays) [µg/mL] | MIC [4] [µg/mL] | MIC [5, 16] [µg/mL] | MIC [6] [µg/mL] | MIC ([7]; average where multiple assays) [µg/mL] | MIC ([8]; average where multiple assays) [µg/mL] | MIC [9, 17] [µg/mL] | MIC ([10]; average where multiple assays) [µg/mL] | MIC [11] [µg/mL] | MIC [12, 18] [µg/mL] | MIC [13, 19] [µg/mL] | MIC [14] [µg/mL] | also measured
COC1(C)CC(C)C(=O)C(C)C2NC(=O)OC2(C)C(CCNS(=O)(=O)c2cccc3cccnc23)OC(=O)C(C)C(=O)C(C)C1OC1OC(C)CC(N(C)C)C1O (stereo not shown) [Compound 105] | 0.01 | 0.39 | 3.12 | 0.01 | 0.01 | 0.049 | 0.025 | 0.025 | 0.01 | 6.25 | 0.049 | 0.39 | 0.01 | 0.01 | 
COC1(C)CC(C)C(=O)C(C)C2NC(=O)OC2(C)C(CCNS(=O)(=O)c2cccc3ccccc23)OC(=O)C(C)C(=O)C(C)C1OC1OC(C)CC(N(C)C)C1O (stereo not shown) [Compound 106] | 0.01 | 12.5 | 6.25 | 0.01 | 0.01 | 0.01 | 0.025 | 0.025 | 0.01 | 6.25 | 0.025 | 3.12 | 0.01 | 0.01 | 
COC1(C)CC(C)C(=O)C(C)C2NC(=O)OC2(C)C(CCNS(=O)(=O)c2ccc3ccccc3c2)OC(=O)C(C)C(=O)C(C)C1OC1OC(C)CC(N(C)C)C1O (stereo not shown) [Compound 107] | 0.01 | 3.12 | 12.5 | 0.01 | 0.01 | 0.01 | 0.025 | 0.025 | 0.01 | 12.5 | 0.025 | 1.56 | 0.01 | 0.01 | 
COC1(C)CC(C)C(=O)C(C)C2NC(=O)OC2(C)C(CCNS(=O)(=O)c2cccc(-c3ccco3)c2)OC(=O)C(C)C(=O)C(C)C1OC1OC(C)CC(N(C)C)C1O (stereo not shown) [Compound 108] | 0.025 | 0.049 | 12.5 | 0.025 | 0.025 | 0.025 | 0.025 | 0.025 | 0.025 | >12.5 | 0.025 | 0.049 | 0.025 | 0.025 | 
CC[C@H]1OC(=O)[C@H](C)C(=O)[C@H](C)[C@@H](O[C@@H]2O[C@H](C)C[C@H](N(C)C)[C@H]2O)[C@](C)(OC)C[C@@H](C)C(=O)[C@H](C)[C@H]2N(CCCCn3cnc(-c4cccnc4)c3)C(=O)O[C@]12C [Tel, telithromycin, reference compound] |  |  |  |  |  |  |  |  |  |  |  |  |  |  | MIC ([1]; Streptococcus pneumoniae, ATCC6301, read-out: MIC): 0.025 µg/mL; MIC ([2]; Streptococcus pneumoniae, ATCC700906, read-out: MIC): 0.2 µg/mL; MIC ([3]; Haemophilus influenzae, ATCC9006, average where multiple assays, read-out: MIC): 1.56 µg/mL; MIC ([4]; Streptococcus pneumoniae, ATCC49619, read-out: MIC): 0.049 µg/mL; MIC ([5]; Streptococcus pneumoniae, ATCC700905, read-out: MIC): 0.025 µg/mL; MIC ([6]; Staphylococcus aureus, ATCC6538P, read-out: MIC): 0.025 µg/mL; MIC ([7]; Enterococcus faecalis, ATCC51575, average where multiple assays, read-out: MIC): > 12.5 µg/mL; MIC ([8]; Staphylococcus epidermidis, ATCC12228, average where multiple assays, read-out: MIC): 0.025 µg/mL; MIC ([9]; Streptococcus pneumoniae, ATCC700677, read-out: MIC): 0.025 µg/mL; MIC ([10]; Haemophilus influenzae, ATCC49766, average where multiple assays, read-out: MIC): 3.12 µg/mL; MIC ([11]; Staphylococcus aureus, ATCC29213, read-out: MIC): 0.025 µg/mL; MIC ([12]; Staphylococcus aureus, ATCC14154, read-out: MIC): > 12.5 µg/mL; MIC ([13]; Streptococcus pneumoniae, ATCC700676, read-out: MIC): 0.098 µg/mL; MIC ([14]; Streptococcus pneumoniae, ATCC700671, read-out: MIC): 0.025 µg/mL
